Experiment [1] concerns the target T1, M1 muscarinic receptors (Homo sapiens, UniProt P11229).
T1 sequence (P11229 1-460): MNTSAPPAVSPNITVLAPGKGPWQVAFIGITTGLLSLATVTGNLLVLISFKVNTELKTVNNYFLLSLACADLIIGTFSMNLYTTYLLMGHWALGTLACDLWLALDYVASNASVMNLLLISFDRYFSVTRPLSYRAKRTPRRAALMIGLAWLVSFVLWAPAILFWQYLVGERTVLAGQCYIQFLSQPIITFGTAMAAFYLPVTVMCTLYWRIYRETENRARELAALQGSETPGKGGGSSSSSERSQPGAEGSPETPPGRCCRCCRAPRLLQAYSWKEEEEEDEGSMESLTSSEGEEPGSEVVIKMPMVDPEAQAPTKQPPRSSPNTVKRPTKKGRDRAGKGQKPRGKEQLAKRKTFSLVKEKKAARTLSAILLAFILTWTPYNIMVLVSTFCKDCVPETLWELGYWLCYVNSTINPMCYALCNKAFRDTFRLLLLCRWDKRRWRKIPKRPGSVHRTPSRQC
To be noted: read-out: M1 Receptors Ki; M1 receptors expressed in A9 L cells.
Source text: (§1) Full dose-response curves were obtained for a few compounds.

Experiment [2] concerns the target T2, M1 muscarinic receptors expressed in A9 L cells (Homo sapiens, UniProt P11229).
T2 sequence (P11229 1-460): T1 sequence (P11229 1-460)
To be noted: mean ± s.e.m.; for PI metabolism (at 100 μM): percentage stimulation above basal levels at 100 μM relative to the carbachol response (100%), two to five assays; for PI metabolism Smax: maximal stimulation from full dose-response curves; for EC50: read-out: PI metabolism EC50, full dose-response curves.
Source text: as §1

Experiment [3] deals with T3, M2 receptors (Homo sapiens, UniProt P08172).
T3 construct: expressed in transfected cells; host or cells: A9 L cells
T3 sequence (P08172 1-466): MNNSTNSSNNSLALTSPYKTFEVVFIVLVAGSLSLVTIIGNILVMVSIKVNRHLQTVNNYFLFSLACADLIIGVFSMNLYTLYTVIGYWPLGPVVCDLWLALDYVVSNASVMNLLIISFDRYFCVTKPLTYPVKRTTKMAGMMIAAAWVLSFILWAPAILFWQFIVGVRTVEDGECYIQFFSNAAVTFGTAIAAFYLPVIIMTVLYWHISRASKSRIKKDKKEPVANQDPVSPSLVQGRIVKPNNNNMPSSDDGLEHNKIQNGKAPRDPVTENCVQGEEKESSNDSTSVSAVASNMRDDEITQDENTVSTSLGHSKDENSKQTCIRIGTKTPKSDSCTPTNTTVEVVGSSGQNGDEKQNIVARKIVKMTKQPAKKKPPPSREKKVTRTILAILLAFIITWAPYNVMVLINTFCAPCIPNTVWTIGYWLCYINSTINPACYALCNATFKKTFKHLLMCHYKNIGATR
In words: Receptor binding at M2 receptors expressed in A9 L cells (high and low affinity sites). The following applies: share of high affinity sites.

Take `CN1CCC=C(c2nsnc2OCCCCCCOc2nsnc2C2=CCCN(C)C2)C1` [(CH2)6]: in experiment [1], the Ki – broadly, a measure of affinity in units of concentration, obtained from inhibition or displacement – was found to be 0.61 ± 0.18 nM. In experiment [2], the “PI metabolism (at 100 μM)” value was 18 ± 0.06%.

For `CN1CCC=C(c2nsnc2OCCCCCCCCCOc2nsnc2C2=CCCN(C)C2)C1` [(CH2)9], in experiment [2], the “PI metabolism Smax” value is given as 140 ± 34%, the “PI metabolism (at 100 μM)” value is reported as 27 ± 6.2% and the EC50 (commonly the midpoint of the concentration-response curve) amounted to 720 ± 370 nM.

On to `CN1CCC=C(c2nsnc2OCCOCCOCCOCCOc2nsnc2C2=CCCN(C)C2)C1` [(CH2)4O3, 2, 2′-bis-{[3-(1-methyl-1,2,5,6-tetrahydropyrid-3-yl)-1,2,5-thiadiazol-4-yloxy]ethyloxy}-diethylether], for which, in experiment [1], the inhibition constant (Ki) worked out at 0.12 ± 0.057 nM. In addition, in experiment [2], the “PI metabolism Smax” value is listed as 250 ± 36% and the EC50 came out at 8.5 ± 1.2 nM.

For `CN1CCC=C(c2nsnc2OCCCCCCCCCCOc2nsnc2C2=CCCN(C)C2)C1` [(CH2)10], the “PI metabolism (at 100 μM)” value in experiment [2] worked out at 76 ± 11%.

On to `CN1CCC=C(c2nsnc2OCCCCCCCCOc2nsnc2C2=CCCN(C)C2)C1` [(CH2)8], for which, in experiment [1], the Ki amounted to 0.19 ± 0.04 nM. Moreover, the “PI metabolism (at 100 μM)” value in experiment [2] is reported as 8.2 ± 1.4%.

`CCCCCCOc1nsnc1C1=CCCN(C)C1` [Xanomeline]: in experiment [3], the “M2 Receptors % High affinity” value is on record as 26 ± 8.5%.

As for `CN1CCC=C(c2nsnc2OCCCCCCCCCCCCOc2nsnc2C2=CCCN(C)C2)C1` [(CH2)12, 1, 12-bis-[3-(1-methyl-1,2,5,6-tetrahydropyrid-3-yl)-1,2,5-thiadiazol-4-yloxy]-dodecane], in experiment [2], the “PI metabolism Smax” value was found to be 190 ± 61%, the “PI metabolism (at 100 μM)” value came to 84 ± 9.9% and the EC50 was determined as 340 ± 190 nM.
